Our source for the % of inhibition and % of control values is ChEMBL document CHEMBL5465560, “Selectivity Literature for EUbOPEN Chemogenomic Library” (2024).

Assay [1] concerns the target T1, Serine/threonine-protein kinase haspin (Homo sapiens) (UniProt Q8TF76).
T1 sequence (whole entry): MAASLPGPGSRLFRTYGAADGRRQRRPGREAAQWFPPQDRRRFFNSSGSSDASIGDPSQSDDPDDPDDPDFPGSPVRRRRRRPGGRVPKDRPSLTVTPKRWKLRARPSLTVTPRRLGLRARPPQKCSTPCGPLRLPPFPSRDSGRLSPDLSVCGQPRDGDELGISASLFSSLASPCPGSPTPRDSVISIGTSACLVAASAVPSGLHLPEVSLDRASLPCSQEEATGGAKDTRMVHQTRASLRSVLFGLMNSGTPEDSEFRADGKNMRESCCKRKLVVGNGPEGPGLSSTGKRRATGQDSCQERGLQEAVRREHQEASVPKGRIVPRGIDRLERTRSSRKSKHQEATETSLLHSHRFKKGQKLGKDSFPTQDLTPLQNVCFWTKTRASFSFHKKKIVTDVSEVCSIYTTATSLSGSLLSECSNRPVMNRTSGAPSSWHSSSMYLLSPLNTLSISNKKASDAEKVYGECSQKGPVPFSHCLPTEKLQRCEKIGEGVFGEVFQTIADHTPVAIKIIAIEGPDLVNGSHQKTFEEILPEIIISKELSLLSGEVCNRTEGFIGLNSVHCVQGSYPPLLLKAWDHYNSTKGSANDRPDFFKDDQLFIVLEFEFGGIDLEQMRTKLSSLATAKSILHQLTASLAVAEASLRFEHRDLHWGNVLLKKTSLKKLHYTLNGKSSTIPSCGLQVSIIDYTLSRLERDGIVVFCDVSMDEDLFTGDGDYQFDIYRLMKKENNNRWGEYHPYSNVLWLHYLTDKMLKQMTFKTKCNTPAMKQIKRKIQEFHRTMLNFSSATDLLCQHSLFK
Briefly: Selectivity interaction (Adapta Assay) EUB0001632a GSG2. The following applies: at 10 µM.

Assay [2] has as its target Calcium/calmodulin-dependent protein kinase kinase 1 (Homo sapiens) (UniProt Q8N5S9). Put plainly: Selectivity interaction (Ambit KINOMEscan and KiNATiv profiling in Jurkat cells) EUB0000090b CAMKK1. It is filed as cell-based. The following applies: at 1 µM.
Assay [3] has as its target Sigma non-opioid intracellular receptor 1 (Homo sapiens) (UniProt Q99720). Put plainly: Selectivity interaction (GPCR panel (PDSP screen)) EUB0000311b SIGMAR1. The following applies: at 10 µM.
The target of assay [4] is T2, Serine/threonine-protein kinase D1 (Homo sapiens) (UniProt Q15139).
T2 sequence (whole entry): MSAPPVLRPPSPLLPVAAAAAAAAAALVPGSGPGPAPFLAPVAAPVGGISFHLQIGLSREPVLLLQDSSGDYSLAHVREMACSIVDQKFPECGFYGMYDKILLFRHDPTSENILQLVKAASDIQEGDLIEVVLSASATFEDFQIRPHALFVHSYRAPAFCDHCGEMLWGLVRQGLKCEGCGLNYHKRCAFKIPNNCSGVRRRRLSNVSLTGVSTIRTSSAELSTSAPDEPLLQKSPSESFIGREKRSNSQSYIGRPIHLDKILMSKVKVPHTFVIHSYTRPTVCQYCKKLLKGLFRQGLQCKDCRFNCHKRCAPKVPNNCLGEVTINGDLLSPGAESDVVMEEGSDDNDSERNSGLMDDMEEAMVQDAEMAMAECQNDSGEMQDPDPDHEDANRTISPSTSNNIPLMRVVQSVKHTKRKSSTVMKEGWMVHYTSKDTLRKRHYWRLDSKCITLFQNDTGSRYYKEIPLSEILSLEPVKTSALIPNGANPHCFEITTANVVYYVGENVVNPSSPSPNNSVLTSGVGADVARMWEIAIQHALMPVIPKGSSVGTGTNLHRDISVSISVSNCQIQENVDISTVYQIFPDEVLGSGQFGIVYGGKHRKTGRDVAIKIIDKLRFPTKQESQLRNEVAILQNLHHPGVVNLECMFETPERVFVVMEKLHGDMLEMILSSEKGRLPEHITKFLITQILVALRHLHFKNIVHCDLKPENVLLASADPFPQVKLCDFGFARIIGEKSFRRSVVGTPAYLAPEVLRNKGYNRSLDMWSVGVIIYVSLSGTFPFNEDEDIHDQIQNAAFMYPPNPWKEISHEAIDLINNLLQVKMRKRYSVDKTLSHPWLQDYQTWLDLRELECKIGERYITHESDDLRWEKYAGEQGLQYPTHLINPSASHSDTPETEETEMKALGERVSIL
Briefly: Selectivity interaction (KinomeScan (DiscoverX)) EUB0000045b PRKD1.

In assay [5] the target is T3, Serine/threonine-protein kinase D3 (Homo sapiens) (UniProt O94806).
T3 sequence (whole entry): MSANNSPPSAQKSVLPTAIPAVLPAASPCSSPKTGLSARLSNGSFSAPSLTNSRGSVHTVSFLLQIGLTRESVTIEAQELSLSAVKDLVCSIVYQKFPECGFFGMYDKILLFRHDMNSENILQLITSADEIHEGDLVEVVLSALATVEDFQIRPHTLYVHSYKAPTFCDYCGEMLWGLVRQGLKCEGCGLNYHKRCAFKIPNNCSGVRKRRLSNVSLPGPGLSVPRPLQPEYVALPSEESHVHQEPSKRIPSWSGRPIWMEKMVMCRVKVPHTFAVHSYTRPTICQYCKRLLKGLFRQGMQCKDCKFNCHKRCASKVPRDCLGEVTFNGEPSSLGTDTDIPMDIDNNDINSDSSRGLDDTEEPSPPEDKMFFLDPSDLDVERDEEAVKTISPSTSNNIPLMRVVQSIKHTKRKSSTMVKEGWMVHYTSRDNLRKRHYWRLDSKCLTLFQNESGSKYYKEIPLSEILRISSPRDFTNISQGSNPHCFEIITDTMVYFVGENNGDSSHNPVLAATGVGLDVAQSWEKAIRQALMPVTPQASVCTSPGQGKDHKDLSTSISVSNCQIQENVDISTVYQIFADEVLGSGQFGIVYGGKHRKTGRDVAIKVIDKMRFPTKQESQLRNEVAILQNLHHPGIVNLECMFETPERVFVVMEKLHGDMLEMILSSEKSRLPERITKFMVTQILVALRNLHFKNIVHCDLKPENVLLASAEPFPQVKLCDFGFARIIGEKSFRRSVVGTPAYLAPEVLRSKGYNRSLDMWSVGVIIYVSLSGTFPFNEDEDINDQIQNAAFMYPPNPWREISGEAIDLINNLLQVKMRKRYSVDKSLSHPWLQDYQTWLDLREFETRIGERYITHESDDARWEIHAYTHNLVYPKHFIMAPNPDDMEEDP
Put plainly: Selectivity interaction (KinomeScan (DiscoverX)) EUB0000595a PRKD3. The following applies: at 10 µM.

Sequence of Calcium/calmodulin-dependent protein kinase kinase 1 (Homo sapiens) (Q8N5S9 whole entry, looked up): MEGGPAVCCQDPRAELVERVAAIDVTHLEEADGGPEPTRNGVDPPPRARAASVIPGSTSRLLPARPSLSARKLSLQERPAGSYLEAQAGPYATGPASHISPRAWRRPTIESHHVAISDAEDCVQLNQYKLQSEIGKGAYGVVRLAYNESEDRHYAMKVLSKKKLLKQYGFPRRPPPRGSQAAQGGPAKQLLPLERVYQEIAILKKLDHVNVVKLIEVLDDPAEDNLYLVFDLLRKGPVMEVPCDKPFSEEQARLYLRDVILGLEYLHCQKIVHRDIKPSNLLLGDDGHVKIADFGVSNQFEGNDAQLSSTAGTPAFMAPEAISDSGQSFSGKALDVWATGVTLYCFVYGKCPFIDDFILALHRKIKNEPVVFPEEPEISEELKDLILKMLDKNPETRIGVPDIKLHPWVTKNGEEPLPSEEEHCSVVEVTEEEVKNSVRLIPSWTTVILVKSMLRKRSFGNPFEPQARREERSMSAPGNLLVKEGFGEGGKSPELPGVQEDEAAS
Sequence of Sigma non-opioid intracellular receptor 1 (Homo sapiens) (Q99720 whole entry): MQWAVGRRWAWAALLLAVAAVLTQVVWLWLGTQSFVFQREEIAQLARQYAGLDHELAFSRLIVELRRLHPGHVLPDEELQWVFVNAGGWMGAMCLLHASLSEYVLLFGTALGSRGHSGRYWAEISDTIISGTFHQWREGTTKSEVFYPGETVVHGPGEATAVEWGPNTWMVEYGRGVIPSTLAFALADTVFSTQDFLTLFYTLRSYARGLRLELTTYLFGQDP

In turn, `Cn1cc(-n2cnc3c(NCc4nc5cc(Cl)c(Cl)cc5[nH]4)nc(N4CCOCC4)nc32)cn1` registered a % of inhibition in assay [1] of 45%.

In the case of `CN(C)C/C=C/C(=O)Nc1ccc(C(=O)N2CCCC(Nc3ncc(Cl)c(-c4c[nH]c5ccccc45)n3)C2)cc1` (stereo unspecified), the % of control in assay [2] is 92%.

Regarding `CCc1ccccc1C(=O)Nc1n[nH]c2c(C)c(F)c(C3C(C#N)=C(C)N(C)C(C)=C3C#N)cc12` [BAY-3827], in assay [3], the % of inhibition was found to be 30.5%.

`C=CC(=O)Nc1cc(-n2c(=O)ccc3cnc4ccc(-c5ccc(NS(C)(=O)=O)cc5)cc4c32)ccc1C`: the % of control worked out at 100% in assay [4] (at 1 µM) and 84% in assay [4] (at 10 µM).

Regarding `COCC(=O)NC/C=C/c1ccc2ncnc(Nc3ccc(Oc4ccc(C)nc4)c(C)c3)c2c1` [CP-724714], the % of control in assay [5] turned out to be 83%.
